{
  "source": "patent EP4772634A1",
  "about": "“DOUBLE-STRANDED RNA TARGETING COAGULATION FACTOR XI” (Chia Tai Tianqing Pharmaceutical Group Co., Ltd., priority 2023, dated 2025)",
  "key": {"[1]": {"system": "human coagulation factor XI protein", "test": "In vivo activity in human coagulation factor XI model mice (Experimental Example 4), FXI protein by ELISA", "settings": "female humanized homozygous mice, single subcutaneous 3 mg/kg", "method": "The humanized mice used in this experimental example were purchased from Cyagen Biosciences Co., Ltd. The female humanized homozygous mice were randomly divided into groups, with 4 mice per group. The compound and PBS control (pH = 7.2) were administered to each group of mice, respectively. The day of the first administration was designated as day 0 of the experiment. The corresponding compound solutions were administered via a single subcutaneous injection based on animal body weight, at an administration dose of 3 mg/kg. PBS control mice were each administered PBS, with an administration volume of 10 mL/kg body weight. Orbital blood was collected before administration and on day 3, day 7, day 14, day 21, day 28, day 42, day 56, and day 70 after administration. Serum was separated, and the content of the coagulation factor XI protein in the serum at each time point was measured using a Human Coagulation Factor XI ELISA kit (Thermo, Batch No. 2350072722, Cat. No. EH118RB).\n(§1) The coagulation factor XI protein inhibition rate was calculated according to the following equation: [formula]\nTable 13 lists the measurement of coagulation factor XI protein content in animal plasma before and on day 3, day 7, day 14, day 21, day 28, day 42, day 56, and day 70 after a single subcutaneous administration of siRNA ligand conjugates at a dose of 3 mg/kg to humanized homozygous mice. […] Table 13. In vivo experimental design"}, "[2]": {"system": "human coagulation factor XI protein", "test": "In vivo activity in AAV-FXI model mice, serum FXI protein by ELISA", "settings": "AAV-FXI mice (C57BL/6 male), single subcutaneous 3 mg/kg", "method": "4-6 week old C57BL/6 male mice were injected via the tail vein with 1 × 10^11 vg of AAV8-FXI (WZ Biosciences). On day 28 after modeling, mice with an hFXI protein content of greater than 100 ng/mL were selected. The mice were randomly divided into groups based on body weight and were injected with 3 mg/kg of the dsRNA ligand conjugate of the present application (amount calculated based on siRNA only) on day 0. Orbital blood was collected on day 7, day 14, day 35, and day 56. Serum was separated, and the content of the coagulation factor XI protein in the serum at each time point was measured using a Human Coagulation Factor XI ELISA kit (Thermo, Cat. No. EH118RB).\nas §1\nThe content of the coagulation factor XI protein in animal serum was measured before and on day 7, day 14, day 35, and day 56 after a single subcutaneous administration of the dsRNA ligand conjugate of the present application at a dose of 3 mg/kg to AAV-FXI mice (see Table 15). […] Table 15. In vivo experimental design"}, "[3]": {"system": "coagulation factor XI", "test": "In vivo activity in cynomolgus monkeys, plasma FXI activity", "settings": "cynomolgus monkey plasma, subcutaneous once, 4.2 mg/kg (first row, dose by order of Table 17)", "method": "(§2) On day 7 before administration, female cynomolgus monkeys weighing 2-4 kg were fasted overnight, and about 1 mL of blood was collected from the femoral vein. Plasma was collected by centrifugation. FXI protein (Human Coagulation Factor XI ELISAkit, Thermo, Cat. No. EH118RB), FXI activity (coagulation factor XI assay kit, Stago, Cat. No. 00723), and APTT (activated partial thromboplastin time assay kit, Stago, Cat. No. 00595) were measured. The monkeys were evenly divided into groups based on these indicators. On day 0, the dsRNA ligand conjugates of the present application (TD02M02L01, etc.) were injected. On day 0, day 3, day 7, day 14, day 21, day 28, day 37, day 54, and day 68, plasma was collected to measure plasma FXI protein, FXI activity, and activated partial thromboplastin time (APTT).\nThe coagulation factor XI activity inhibition rate was calculated according to the following equation: [formula]\n(§3) The content of the coagulation factor XI protein, the FXI activity, and the activated partial thromboplastin time in animal plasma were measured before and on day 0, day 3, day 7, day 14, day 21, day 28, day 37, day 54, and day 68 after the subcutaneous administration of the dsRNA ligand conjugates of the present application at doses of 4.2 mg/kg and 14 mg/kg to cynomolgus monkeys (Table 17). […] Table 17. In vivo experimental design"}, "[4]": {"system": "activated partial thromboplastin time (APTT)", "test": "In vivo activity in cynomolgus monkeys, activated partial thromboplastin time in plasma", "settings": "cynomolgus monkey plasma, subcutaneous once, 14 mg/kg (second row, dose by order of Table 17)", "method": "as §2\nThe activated partial thromboplastin time prolongation rate was calculated according to the following equation: [formula]\nas §3"}},
  "data": [
    {"substance": "TD02M02L01: dsRNA ligand conjugate: TD02M02 with L01 (GalNAc) ligand at 3' end of sense strand SEQ ID NO 35; antisense SEQ ID NO 36 (sense GGATGATTTTCTTATATCA; antisense TGATATAAGAAAATCATCCTG; GalNAc L01 ligand at sense 3' end, 2'-OMe/2'-F, pattern not given here)", "values": [
      {"measurement": "Relative inhibition rate (%) of FXI protein", "setting": "[1]; D3", "result": 74.4, "unit": "%"},
      {"measurement": "Relative inhibition rate (%) of FXI protein", "setting": "[1]; D7", "result": 93.7, "unit": "%"},
      {"measurement": "Relative inhibition rate (%) of FXI protein", "setting": "[1]; D14", "result": 86.4, "unit": "%"},
      {"measurement": "Relative inhibition rate (%) of FXI protein", "setting": "[1]; D21", "result": 88.0, "unit": "%"},
      {"measurement": "Relative inhibition rate (%) of FXI protein", "setting": "[1]; D28", "result": 84.9, "unit": "%"},
      {"measurement": "Relative inhibition rate (%) of FXI protein", "setting": "[1]; D42", "result": 63.3, "unit": "%"},
      {"measurement": "Relative inhibition rate (%) of FXI protein", "setting": "[1]; D56", "result": 50.4, "unit": "%"},
      {"measurement": "Relative inhibition rate (%) of FXI protein", "setting": "[1]; D70", "result": 21.4, "unit": "%"},
      {"measurement": "Relative inhibition rate (%) of FXI protein", "setting": "[2]; D7", "result": 96.3, "unit": "%"},
      {"measurement": "Relative inhibition rate (%) of FXI protein", "setting": "[2]; D14", "result": 97.3, "unit": "%"},
      {"measurement": "Relative inhibition rate (%) of FXI protein", "setting": "[2]; D35", "result": 86.0, "unit": "%"},
      {"measurement": "Relative inhibition rate (%) of FXI protein", "setting": "[2]; D56", "result": 57.4, "unit": "%"},
      {"measurement": "Relative inhibition rate (%) of FXI activity", "setting": "[3]; D3", "result": 20.5, "unit": "%"},
      {"measurement": "Relative inhibition rate (%) of FXI activity", "setting": "[3]; D7", "result": 66.0, "unit": "%"},
      {"measurement": "Relative inhibition rate (%) of FXI activity", "setting": "[3]; D14", "result": 84.7, "unit": "%"},
      {"measurement": "Relative inhibition rate (%) of FXI activity", "setting": "[3]; D21", "result": 88.9, "unit": "%"},
      {"measurement": "Relative inhibition rate (%) of FXI activity", "setting": "[3]; D28", "result": 89.2, "unit": "%"},
      {"measurement": "Relative inhibition rate (%) of FXI activity", "setting": "[3]; D37", "result": 92.6, "unit": "%"},
      {"measurement": "Relative inhibition rate (%) of FXI activity", "setting": "[3]; D54", "result": 91.4, "unit": "%"},
      {"measurement": "Relative prolongation rate (%) of APTT", "setting": "[4]; D3", "result": 6.0, "unit": "%"},
      {"measurement": "Relative prolongation rate (%) of APTT", "setting": "[4]; D7", "result": 25.2, "unit": "%"},
      {"measurement": "Relative prolongation rate (%) of APTT", "setting": "[4]; D14", "result": 60.9, "unit": "%"},
      {"measurement": "Relative prolongation rate (%) of APTT", "setting": "[4]; D21", "result": 116.0, "unit": "%"},
      {"measurement": "Relative prolongation rate (%) of APTT", "setting": "[4]; D28", "result": 70.6, "unit": "%"},
      {"measurement": "Relative prolongation rate (%) of APTT", "setting": "[4]; D37", "result": 100.3, "unit": "%"},
      {"measurement": "Relative prolongation rate (%) of APTT", "setting": "[4]; D54", "result": 124.4, "unit": "%"},
      {"measurement": "Relative prolongation rate (%) of APTT", "setting": "[4]; D68", "result": 132.4, "unit": "%"}
    ]}
  ]
}
